melting point [°C]	Compound
235 to 236.5	CCc1cccc2c1C(=O)N(C1CCC(=O)NC1=O)C2=O (stereo not drawn) [Example 6, 2-(2,6-Dioxo(3-piperidyl))-4-ethylisoindoline-1,3-dione]
214.5 to 216.5	CN(C)c1cccc2c1C(=O)N(C1CCC(=O)NC1=O)C2=O (stereo not drawn) [Example 8, 4-Dimethylamino-2-(2,6-dioxo(3-piperidyl))isoindoline-1,3-dione]
248 to 250	Cc1cccc2c1C(=O)N(C1(C)CCC(=O)NC1=O)C2=O (stereo not drawn) [Example 10, 4-Methyl-2-(2,6-dioxo-3-methyl-(3-piperidyl))isoindoline-1,3-dione]

Source: patent publication US7820697B2, “Compositions and method for reducing TNFα levels” (Celgene Corporation, priority 1998, dated 2010)
